Data published in patent publication US20070128217A1 (priority 2003, published 2007).

Columns and labels:
[1] = tested on: antibodies in sera from SARS patients (sera 1a, 1b, 2, 6, 37, 62, London, SARS-yellow, SARS-green); assay type: binding, human; design: Binding of serum 6 to linear peptides of protein X1 of SARS-CoV Urbani / Binding of serum 37 to linear peptides of protein X1 of SARS-CoV Urbani / Binding of serum 6 to looped/cyclic peptide (PEPSCAN-ELISA) / Binding of serum 37 to looped/cyclic peptide (PEPSCAN-ELISA) / Binding of serum 37 to looped/cyclic peptides of protein X1 of SARS-CoV Urbani / Binding of serum 6 to linear peptides of protein X2 / Binding of serum 37 to linear peptides of protein X2 / Binding of serum 37 to looped/cyclic peptides of protein X2 of SARS-CoV Urbani / Binding of serum 6 to linear peptides of protein M of SARS-CoV Urbani / Binding of serum 37 to linear peptides of protein M of SARS-CoV Urbani / Binding of serum 6 to looped/cyclic peptides of protein M of SARS-CoV Urbani / Binding of serum 37 to looped/cyclic peptides of protein M of SARS-CoV Urbani / Binding of serum 6 to linear peptides of protein X3 of SARS-CoV Urbani / Binding of serum 37 to linear peptides of protein X3 of SARS-CoV Urbani / Binding of serum 37 to looped/cyclic peptides of protein X3 of SARS-CoV Urbani / Binding of serum 6 to linear peptides of protein X4 of SARS-CoV Urbani / Binding of serum 37 to linear peptides of protein X4 of SARS-CoV Urbani / Binding of serum 37 to looped/cyclic peptides of protein X4 of SARS-CoV Urbani / Binding of serum 6 to linear peptides of protein X5 of SARS-CoV Urbani / Binding of serum 37 to linear peptides of protein X5 of SARS-CoV Urbani / Binding of serum 37 to looped/cyclic peptides of protein X5 of SARS-CoV Urbani / Binding of serum 6 to linear peptides of protein N of SARS-CoV Urbani / Binding of serum 37 to linear peptides of protein N of SARS-CoV Urbani / Binding of serum 6 to linear peptide (PEPSCAN-ELISA) / Binding of serum 1a to looped/cyclic peptides of protein N of SARS-CoV Urbani / Binding of serum 1b to looped/cyclic peptides of protein N of SARS-CoV Urbani / Binding of serum 2 to looped/cyclic peptides of protein N of SARS-CoV Urbani / Binding of serum 6 to looped/cyclic peptides of protein N of SARS-CoV Urbani / Binding of serum 37 to looped/cyclic peptides of protein N of SARS-CoV Urbani / Binding of serum 62 to looped/cyclic peptides of protein N of SARS-CoV Urbani / Binding of serum London to looped/cyclic peptides of protein N of SARS-CoV Urbani / Binding of serum SARS-green to looped/cyclic peptides of protein N of SARS-CoV Urbani: unit not given here
[2] = tested on: control sera (pooled serum of ten healthy LUMC hospital workers; commercial negative donor pooled serum from the Dutch bloodbank); assay type: binding, human; design: Binding of Control serum LUMC to linear peptides / Binding of Control serum Blood-bank to linear peptides / Binding of Control serum LUMC to looped peptides / Binding of Control Serum Blood-Bank to Looped peptides / Binding of Control serum LUMC to linear peptides of the protein M of SARS-CoV Urbani / Binding of Control serum Blood-bank to linear peptides of the protein M of SARS-CoV Urbani / Binding of Control serum LUMC to looped peptides of the protein M of SARS-CoV Urbani / Binding of Control Serum Blood-Bank to Looped peptides of the protein M of SARS-CoV Urbani: unit not given here
[3] = tested on: rabbit serum obtained by immunizing a rabbit with the SARS-CoV strain Frankfurt 1; assay type: binding; design: Binding of a rabbit serum to linear peptides / Binding of a rabbit serum to looped peptides / Rabbit serum linear peptides / Rabbit serum looped peptides / Binding of a rabbit serum to linear peptides of protein N of SARS-CoV Urbani (Rabbit serum linear peptides) / Binding of a rabbit serum to looped/cyclic peptides of protein N of SARS-CoV Urbani (Rabbit serum looped peptides): unit not given here

Sequence: LHSSSLTSLLKTHRM
- Binding of serum 1a to linear peptides of protein X2 [1]: 0.6
- Binding of serum 1a to looped/cyclic peptides of protein X2 of SARS-CoV Urbani [1]: 0.4
- Binding of serum 1b to linear peptides of protein X2 [1]: 0.5
- Binding of serum 1b to looped/cyclic peptides of protein X2 of SARS-CoV Urbani [1]: 0.4
- Binding of serum 2 to linear peptides of protein X2 [1]: 0.4
- Binding of serum 2 to looped/cyclic peptides of protein X2 of SARS-CoV Urbani [1]: 0.3
- Binding of serum 6 to linear peptides of protein X2 [1]: 0.5
- Binding of serum 6 to looped/cyclic peptides of protein X2 of SARS-CoV Urbani [1]: 0.2
- Binding of serum 37 to linear peptides of protein X2 [1]: 0.5
- Binding of serum 37 to looped/cyclic peptides of protein X2 of SARS-CoV Urbani [1]: 0.3
- Binding of serum 62 to linear peptides of protein X2 [1]: 0.5
- Binding of serum 62 to looped/cyclic peptides of protein X2 of SARS-CoV Urbani [1]: 0.4
- Binding of serum London to linear peptides of protein X2 [1]: 0.6
- Binding of serum London to looped/cyclic peptides of protein X2 of SARS-CoV Urbani [1]: 0.2
- Binding of serum SARS-green to linear peptides of protein X2 [1]: 0.6
- Binding of serum SARS-green to looped/cyclic peptides of protein X2 of SARS-CoV Urbani [1]: 0.3
- Binding of serum SARS-yellow to linear peptides of protein X2 [1]: 0.6
- Binding of serum SARS-yellow to looped/cyclic peptides of protein X2 of SARS-CoV Urbani [1]: 0.3
- Binding of Control Serum Blood-Bank to Looped peptides [2]: 0.4
- Binding of Control serum Blood-bank to linear peptides [2]: 0.7
- Binding of Control serum LUMC to linear peptides [2]: 0.4
- Binding of Control serum LUMC to looped peptides [2]: 0.4
- Binding of a rabbit serum to linear peptides [3]: 0.2
- Binding of a rabbit serum to looped peptides [3]: 0.4

Sequence: VASFRLFARTRSMWS
- Binding of serum 1a to linear peptides of protein M of SARS-CoV Urbani [1]: 0.7
- Binding of serum 1b to linear peptides of protein M of SARS-CoV Urbani [1]: 0.5
- Binding of serum 2 to linear peptides of protein M of SARS-CoV Urbani [1]: 0.5
- Binding of serum 6 to linear peptides of protein M of SARS-CoV Urbani [1]: 0.3
- Binding of serum 37 to linear peptides of protein M of SARS-CoV Urbani [1]: 0.7
- Binding of serum 62 to linear peptides of protein M of SARS-CoV Urbani [1]: 0.8
- Binding of serum London to linear peptides of protein M of SARS-CoV Urbani [1]: 0.3
- Binding of serum SARS-green to linear peptides of protein M of SARS-CoV Urbani [1]: 0.3
- Binding of serum SARS-yellow to linear peptides of protein M of SARS-CoV Urbani [1]: 0.0
- Recognition of the peptide by sera of SARS-CoV infected individuals, and form (linear, looped/cyclic) in which it is recognized [1]: recognized in looped/cyclic form
- Binding of Control Serum Blood-Bank to Looped peptides of the protein M of SARS-CoV Urbani [2]: 0.8
- Binding of Control serum Blood-bank to linear peptides of the protein M of SARS-CoV Urbani [2]: 0.7
- Binding of Control serum LUMC to linear peptides of the protein M of SARS-CoV Urbani [2]: 0.4
- Binding of Control serum LUMC to looped peptides of the protein M of SARS-CoV Urbani [2]: 0.6
- Rabbit serum linear peptides [3]: 0.8
- Rabbit serum looped peptides [3]: 0.4

Sequence: KSKNPLLYDANYFVC
- Binding of serum 1a to linear peptides of protein X1 of SARS-CoV Urbani [1]: 0.7
- Binding of serum 1a to looped/cyclic peptide (PEPSCAN-ELISA) [1]: 0.6
- Binding of serum 1b to linear peptides of protein X1 of SARS-CoV Urbani [1]: 0.4
- Binding of serum 1b to looped/cyclic peptide (PEPSCAN-ELISA) [1]: 0.5
- Binding of serum 2 to linear peptides of protein X1 of SARS-CoV Urbani [1]: 0.4
- Binding of serum 2 to looped/cyclic peptide (PEPSCAN-ELISA) [1]: 0.4
- Binding of serum 6 to linear peptides of protein X1 of SARS-CoV Urbani [1]: 0.4
- Binding of serum 6 to looped/cyclic peptide (PEPSCAN-ELISA) [1]: 0.3
- Binding of serum 37 to linear peptides of protein X1 of SARS-CoV Urbani [1]: 0.5
- Binding of serum 37 to looped/cyclic peptide (PEPSCAN-ELISA) [1]: 0.6
- Binding of serum 62 to linear peptides of protein X1 of SARS-CoV Urbani [1]: 0.4
- Binding of serum 62 to looped/cyclic peptide (PEPSCAN-ELISA) [1]: 0.6
- Binding of serum London to linear peptides of protein X1 of SARS-CoV Urbani [1]: 0.2
- Binding of serum London to looped/cyclic peptide (PEPSCAN-ELISA) [1]: 0.2
- Binding of serum SARS-green to linear peptides of protein X1 of SARS-CoV Urbani [1]: 0.2
- Binding of serum SARS-green to looped/cyclic peptide (PEPSCAN-ELISA) [1]: 0.4
- Binding of serum SARS-yellow to linear peptides of protein X1 of SARS-CoV Urbani [1]: 0.3
- Binding of serum SARS-yellow to looped/cyclic peptide (PEPSCAN-ELISA) [1]: 0.4
- Binding of Control Serum Blood-Bank to Looped peptides [2]: 0.5
- Binding of Control serum Blood-bank to linear peptides [2]: 0.3
- Binding of Control serum LUMC to linear peptides [2]: 0.7
- Binding of Control serum LUMC to looped peptides [2]: 0.6
- Binding of a rabbit serum to linear peptides [3]: 0.1
- Binding of a rabbit serum to looped peptides [3]: 0.6
